Source: patent US9643999B2 (Bristol-Myers Squibb Company, priority 2012, dated 2017)
Where two headings read alike, the source gives them in different places.

Key:
HCV genotype 1b replicon = test: HCV replicon luciferase reporter assay, genotype 1b (LE_1b); assay type: cell-based; details: Hepatitis C virus, 72 h, HUH-7 cells, genotype 1b (Con1) replicon, 3 days incubation, Renilla luciferase
Source text: An HCV replicon whole cell system was established as described by Lohmann V, Korner F, Koch J, Herian U, Theilmann L, Bartenschlager R., Science 285(5424):110-3 (1999) and modified to introduce a luciferase reporter, as first described by Krieger et al (Krieger N, Lohmann V, and Bartenschlager R, J. Virol. 75(10):4614-4624 (2001)). cDNA encoding a humanized form of the Renilla luciferase gene and a linker sequence fused directly to the 3′-end of the luciferase gene were introduced into the replicon construct using an Asc1 restriction site located in core, directly upstream of the neomycin marker gene. The adaptive mutation at position 1179 (serine to isoleucine) was also introduced (Blight K J, Kolykhalov, A A, Rice, C M, Science 290(5498):1972-1974). A stable cell line constitutively expressing this HCV replicon construct was generated by first linearizing plasmid DNAs with ScaI. RNA transcripts were synthesized in vitro using the T7 MegaScript transcription kit (Ambion, Austin, Tex.) according to manufacturer's directions. In vitro transcripts of the cDNA were transfected into the human hepatoma cell line, HUH-7. […] Resulting cell lines were characterized for positive and negative strand RNA production and protein production over time. […]
(§1) HCV replicon luciferase assays were developed to monitor the inhibitory effects of compounds described in the disclosure on HCV genotypes 1a and 1b viral replication. HUH-7 cells, constitutively expressing the HCV replicon, were grown in Dulbecco's Modified Eagle Media (DMEM) (Gibco-BRL) containing 10% Fetal calf serum (FCS) (Sigma) and 1 mg/mL G418 (Gibco-BRL). Compounds were serially diluted 3 folds in DMSO for a twenty-point titration and subsequently transferred to sterile 384-well tissue-culture treated plates (Corning cat #3571). The plates were then seeded with 50 μL of cells at a density of 3.0×10^3 cells/well in DMEM containing 4% FCS (final DMSO concentration at 0.5%). After 3 days incubation at 37° C., cells were analyzed for Renilla Luciferase activity using the EnduRen as substrate (Promega cat #E6485). The EnduRen substrate was diluted in DMEM and then added to the plates to a final concentration of 7.5 μM. The plates were incubated for 2 hrs at 37° C. and then read immediately for 30 seconds with Viewlux Imager (PerkinElmer) using a luminescence program. To assess cytotoxicity of compounds, CC50 values were generated by multiplexing the EnduRen-containing plates with Cell Titer-Blue (Promega, cat #G8082). Cell-Titer Blue (3 μL) was added to each well and incubated for 8 hrs at 37° C. The fluorescence signal from each well was read, with an excitation wavelength at 525/10 nm and an emission wavelength of 598/10 nm, using the Viewlux Imager.
(§2) The EC50 values for compounds were calculated by using a four-parameter logistic equation: y=A+((B−A)/(1+((C/x)^D))), where A and B denotes minimal and maximal % inhibition, respectively, C is the EC50, D is the hill slope and x represents compound concentration.

HCV genotype 1a replicon = test: HCV replicon luciferase reporter assay, genotype 1a (LE_1a); assay type: cell-based; details: Hepatitis C virus, 72 h, HUH-7 cells, genotype 1a H77 replicon, 3 days incubation, Renilla luciferase
Source text: An HCV replicon whole cell system was established as described by Lohmann V, Korner F, Koch J, Herian U, Theilmann L, Bartenschlager R., Science 285(5424):110-3 (1999) and modified to introduce a luciferase reporter, as first described by Krieger et al (Krieger N, Lohmann V, and Bartenschlager R, J. Virol. 75(10):4614-4624 (2001)). cDNA encoding a humanized form of the Renilla luciferase gene and a linker sequence fused directly to the 3′-end of the luciferase gene were introduced into the replicon construct using an Asc1 restriction site located in core, directly upstream of the neomycin marker gene. The adaptive mutation at position 1179 (serine to isoleucine) was also introduced (Blight K J, Kolykhalov, A A, Rice, C M, Science 290(5498):1972-1974). A stable cell line constitutively expressing this HCV replicon construct was generated by first linearizing plasmid DNAs with ScaI. RNA transcripts were synthesized in vitro using the T7 MegaScript transcription kit (Ambion, Austin, Tex.) according to manufacturer's directions. In vitro transcripts of the cDNA were transfected into the human hepatoma cell line, HUH-7. […] Resulting cell lines were characterized for positive and negative strand RNA production and protein production over time.
A stable HCV replicon luciferase reporter cell line representing the genotype 1a H77 strain (Yanagi M, Purcell R H, Emerson S U, et al. Transcripts from a single full-length cDNA clone of hepatitis C virus are infectious when directly transfected into the liver of a chimpanzee. Proc Natl Acad Sci USA 1997; 94(16):8738-8743) was generated as described previously for the genotype 1b(Con1) replicon luciferase cell line. The replicon construct was modified by introducing mutations were introduced into the genes encoding the NS3 helicase domain (proline replaced by leucine at position 1496) and NS5A (serine to isoleucine at position 2204) to improve replication in cell culture.
as §1, §2

Compound | EC50 (HCV genotype 1b replicon; read-out: LE_1b (EC50)) | EC50 (HCV genotype 1b replicon; read-out: LE_1b (EC50, range)) | EC50 (HCV genotype 1a replicon; read-out: LE_1a (EC50)) | EC50 (HCV genotype 1a replicon; read-out: LE_1a (EC50, range))
CC[C@@H]1C[C@H](C)CC/C=C\[C@@H]2C[C@@]2(C(=O)NS(=O)(=O)C2(C)CC2)NC(=O)[C@@H]2C[C@@H](Oc3nc4cc(-c5ncc(C)o5)ccc4nc3C(F)(F)F)CN2C(=O)[C@H]1NC(=O)OC(C)(C)C(F)(F)F [Compound 7003] | 0.8 nM | 0.51 to 1 nM | 3.7 nM | 1.01 to 5 nM
C[C@@H]1CC/C=C\[C@@H]2C[C@@]2(C(=O)NS(=O)(=O)C2(C)CC2)NC(=O)[C@@H]2C[C@@H](Oc3nc4nncn4c4ccccc34)CN2C(=O)[C@@H](NC(=O)OC(C)(C)C)[C@H](C)C1 [Compound 6120, tert-butyl((2R,6S,7R,9R,13aS,14aR,16aS,Z)-2-([1,2,4]triazolo[4,3-a]quinazolin-5-yloxy)-7,9-dimethyl-14a-(((1-methylcyclopropyl)sulfonyl)carbamoyl)-5,16-dioxo-1,2,3,5,6,7,8,9,10,11,13a,14,14a,15,16,16a-hexadecahydrocyclopropa[e]pyrrolo[1,2-a][1,4]diazacyclopentadecin-6-yl)carbamate] |  | 35 to 145 nM |  | 35 to 145 nM
C[C@@H]1CC/C=C\[C@@H]2C[C@@]2(C(=O)NS(=O)(=O)C2(C)CC2)NC(=O)[C@@H]2C[C@@H](Oc3nc4nccn4c4ccccc34)CN2C(=O)[C@@H](NC(=O)OC(C)(C)C(F)(F)F)[C@H](C)C1 [Compound 6127] |  | 5.01 to 35 nM |  | 5.01 to 35 nM
CC[C@@H]1C[C@H](C)CC/C=C\[C@@H]2C[C@@]2(C(=O)NS(=O)(=O)C2(C)CC2)NC(=O)[C@@H]2C[C@@H](Oc3cc(-n4ccc(C(C)C)n4)nc4cc(OC)ccc34)CN2C(=O)[C@H]1NC(=O)OC(C)(C)C(F)(F)F [Compound 4358] |  | 1.01 to 5 nM |  | 1.01 to 5 nM
CC[C@@H]1C[C@H](C)CC/C=C\[C@@H]2C[C@@]2(C(=O)NS(=O)(=O)C2CC2)NC(=O)[C@@H]2C[C@@H](Oc3ncc(-c4nc(C(C)(C)C)cs4)c4cc(OC)ccc34)CN2C(=O)[C@H]1NC(=O)OC(C)(C)C(F)(F)F [Compound 4288] |  | 5.01 to 35 nM |  | 5.01 to 35 nM
Cc1cn2c(n1)nc(O[C@@H]1C[C@H]3C(=O)N[C@]4(C(=O)NS(=O)(=O)C5(CF)CC5)C[C@H]4/C=C\CC[C@@H](C)C[C@@H](C)[C@H](NC(=O)OC(C)(C)C(F)(F)F)C(=O)N3C1)c1cc(Cl)ccc12 [Compound 6139] |  | 1.01 to 5 nM |  | 5.01 to 35 nM
Cc1cnc(-c2ccc3nc(C(F)(F)F)c(O[C@@H]4C[C@H]5C(=O)N[C@]6(C(=O)NS(=O)(=O)C7(C)CC7)C[C@H]6/C=C\CC[C@@H](C)C[C@@H](C)[C@H](NC(=O)OC(C)(C)C(F)(F)F)C(=O)N5C4)nc3c2)o1 [Compound 7002] |  | 0.51 to 1 nM |  | 1.01 to 5 nM
CC[C@@H]1C[C@H](C)CC/C=C\[C@@H]2C[C@@]2(C(=O)NS(=O)(=O)C2CC2)NC(=O)[C@@H]2C[C@@H](Oc3nc4ccc(OC)cc4nc3C3CC3)CN2C(=O)[C@H]1NC(=O)OC(C)(C)C(F)(F)F [Compound 4308] |  | 5.01 to 35 nM |  | 5.01 to 35 nM
CC[C@@H]1C[C@H](C)CC/C=C\[C@@H]2C[C@@]2(C(=O)NS(=O)(=O)C2(C)CC2)NC(=O)[C@@H]2C[C@@H](Oc3ncc(-c4nccs4)c4cc(OC)ccc34)CN2C(=O)[C@H]1NC(=O)OC(C)(C)C(F)(F)F [Compound 4258] |  | 1.01 to 5 nM |  | 1.01 to 5 nM
CC[C@@H]1C[C@H](C)CC/C=C\[C@@H]2C[C@@]2(C(=O)NS(=O)(=O)C2(C)CC2)NC(=O)[C@@H]2C[C@@H](Oc3ncc(-c4nccs4)c4cc(OC)ccc34)CN2C(=O)[C@H]1NC(=O)OC(C)(C)C [Compound 4255, tert-butyl((2R,6S,7R,9R,13aS,14aR,16aS,Z)-7-ethyl-2-((6-methoxy-4-(thiazol-2-yl)isoquinolin-1-yl)oxy)-9-methyl-14a-(((1-methylcyclopropyl)sulfonyl)carbamoyl)-5,16-dioxo-1,2,3,5,6,7,8,9,10,11,13a,14,14a,15,16,16a-hexadecahydrocyclopropa[e]pyrrolo[1,2-a][1,4]diazacyclopentadecin-6-yl)carbamate] |  | 0.51 to 1 nM |  | 1.01 to 5 nM
CC[C@@H]1C[C@H](C)CC/C=C\[C@@H]2C[C@@]2(C(=O)NS(=O)(=O)C2CC2)NC(=O)[C@@H]2C[C@@H](Oc3nc4ccc(OC)cc4nc3C3CC3)CN2C(=O)[C@H]1NC(=O)OC(C)(C)C [Compound 4306] |  | 5.01 to 35 nM |  | 5.01 to 35 nM
CC[C@@H]1C[C@H](C)CC/C=C\[C@@H]2C[C@@]2(C(=O)NS(=O)(=O)C2(C)CC2)NC(=O)[C@@H]2C[C@@H](Oc3ncc(N(CC)C(=O)c4ccccc4)c4cc(OC)ccc34)CN2C(=O)[C@H]1NC(=O)OC(C)(C)C(F)(F)F [Compound 4264] |  | 1.01 to 5 nM |  | 1.01 to 5 nM
CC[C@@H]1C[C@H](C)CC/C=C\[C@@H]2C[C@@]2(C(=O)NS(=O)(=O)C2(C)CC2)NC(=O)[C@@H]2C[C@@H](Oc3nccc4c5c(ccc34)CCO5)CN2C(=O)[C@H]1NC(=O)OC(C)(C)C [Compound 5493, tert-butyl((2R,6S,7R,9R,13aS,14aR,16aS,Z)-2-((2,3-dihydrofuro[2,3-f]isoquinolin-6-yl)oxy)-7-ethyl-9-methyl-14a-(((1-methylcyclopropyl)sulfonyl)carbamoyl)-5,16-dioxo-1,2,3,5,6,7,8,9,10,11,13a,14,14a,15,16,16a-hexadecahydrocyclopropa[e]pyrrolo[1,2-a][1,4]diazacyclopentadecin-6-yl)carbamate] |  | 5.01 to 35 nM |  | 35 to 145 nM
CC[C@@H]1C[C@H](C)CC/C=C\[C@@H]2C[C@@]2(C(=O)NS(=O)(=O)C2(C)CC2)NC(=O)[C@@H]2C[C@@H](Oc3ncc(-c4nc(C(C)(C)C)cs4)c4cc(OC)ccc34)CN2C(=O)[C@H]1NC(=O)OC(C)(C)C(F)(F)F [Compound 4275] |  | 5.01 to 35 nM |  | 5.01 to 35 nM
CC[C@@H]1C[C@H](C)CC/C=C\[C@@H]2C[C@@]2(C(=O)NS(=O)(=O)C2CC2)NC(=O)[C@@H]2C[C@@H](Oc3ncc(-c4cnco4)c4cc(OC)ccc34)CN2C(=O)[C@H]1NC(=O)OC(C)(C)C(F)(F)F [Compound 4293] |  | 0.51 to 1 nM |  | 1.01 to 5 nM
CC[C@@H]1C[C@H](C)CC/C=C\[C@@H]2C[C@@]2(C(=O)NS(=O)(=O)C2(C)CC2)NC(=O)[C@@H]2C[C@@H](Oc3ncc(C(=O)OC)c4cc(OC)ccc34)CN2C(=O)[C@H]1NC(=O)OC(C)(C)C(F)(F)F [Compound 4287] |  | 1.01 to 5 nM |  | 1.01 to 5 nM
